Calls of active or inactive are those of the source. The calls are words filed in the database; no cut-off is given here.
Legend:
[1] = Cytotoxicity against human ARPE-19 cells assessed as reduction in cell viability incubated for 96 hrs by CellTiter 96 Aqueous One Solution Cell Proliferation Assay; assay type: toxicity, cell-based
[2] = Efflux ratio of apparent permeability across basolateral to apical side over apical to basolateral side in human Caco-2 cells expressing Pgp/BCRP at 10 uM incubated for 120 mins by LC-MS/MS analysis; assay type: ADME, cell-based; details: caco-2, 2 h
[3] = Mutagenicity in Salmonella typhimurium TA100 at 0.01 to 100 uM incubated for 90 mins in presence of liver S9 fraction by AMES test; assay type: toxicity, subcellular; details: salmonella enterica subsp. enterica serovar typhimurium, s9, 1.5 h, dose 0.01-100 µM
[4] = Metabolic stability in human liver microsomes assessed as parent compound remaining at 2 uM measured at 60 mins by LC-MS/MS analysis; assay type: ADME, Microsome; details: 1 h
[5] = test system: ARPE-19; test: Cytotoxicity against human ARPE-19 cells assessed as reduction in cell viability at 30 to 100 uM incubated for 96 hrs by CellTiter 96 Aqueous One Solution Cell Proliferation Assay; assay type: toxicity, cell-based; details: arpe-19, 96 h, dose 30-100 µM
[6] = Mutagenicity in Salmonella typhimurium TA100 at 0.01 to 100 uM incubated for 90 mins in absence of liver S9 fraction by AMES test; assay type: toxicity; details: salmonella enterica subsp. enterica serovar typhimurium, s9, 1.5 h, dose 0.01-100 µM
[7] = Cytotoxicity against human HMC3 cells assessed as reduction in cell viability incubated for 96 hrs by CellTiter 96 Aqueous One Solution Cell Proliferation Assay; assay type: toxicity, cell-based
[8] = Apparent permeability of the compound across apical to basolateral side in human Caco-2 cells expressing Pgp/BCRP at 10 uM incubated for 120 mins by LC-MS/MS analysis; assay type: ADME, cell-based; details: caco-2, 2 h
[9] = Apparent permeability of the compound across basal to apical side in human Caco-2 cells expressing Pgp/BCRP at 10 uM incubated for 120 mins by LC-MS/MS analysis; assay type: ADME, cell-based; details: caco-2, 2 h
[10] = Mutagenicity in Salmonella typhimurium TA98 at 0.01 to 100 uM incubated for 90 mins in presence of liver S9 fraction by AMES test; assay type: toxicity, subcellular; details: salmonella enterica subsp. enterica serovar typhimurium, s9, 1.5 h, dose 0.01-100 µM
[11] = Metabolic stability in human liver microsomes assessed as half life at 2 uM measured upto 60 mins by LC-MS/MS analysis; assay type: ADME, Microsome; details: 1 h
[12] = Mutagenicity in Salmonella typhimurium TA98 at 0.01 to 100 uM incubated for 90 mins in absence of liver S9 fraction by AMES test; assay type: toxicity; details: salmonella enterica subsp. enterica serovar typhimurium, s9, 1.5 h, dose 0.01-100 µM
[13] = test system: HMC3; test: Cytotoxicity against human HMC3 cells assessed as reduction in cell viability at 30 to 100 uM incubated for 96 hrs by CellTiter 96 Aqueous One Solution Cell Proliferation Assay; assay type: toxicity, cell-based; details: hmc3, 96 h, dose 30-100 µM
[14] = molecular target: T1, Proteasome subunit beta type-9 (Homo sapiens, UniProt P28065); test: Inhibition of human LMP2 using Ac-PAL-AMC as substrate incubated for 1 hr by fluorescence based SpectraMax M5e plate reader
T1 sequence (P28065 whole entry): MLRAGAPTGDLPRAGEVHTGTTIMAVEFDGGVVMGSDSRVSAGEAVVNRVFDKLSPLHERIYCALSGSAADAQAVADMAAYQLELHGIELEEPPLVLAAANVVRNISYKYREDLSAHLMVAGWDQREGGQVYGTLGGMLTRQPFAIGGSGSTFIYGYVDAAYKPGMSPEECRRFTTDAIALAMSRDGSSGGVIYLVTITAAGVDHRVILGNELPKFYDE

[15] = molecular target: T2, Proteasome subunit beta type-9 (Mus musculus) (UniProt P28076); test: Covalent inhibition of LMP2 in mouse BV-2 cells assessed as band shift at 0.3 to 3 uM incubated for 24 hrs by Western blot analysis; assay type: cell-based; details: dose 0.3-3 µM
T2 sequence (whole entry): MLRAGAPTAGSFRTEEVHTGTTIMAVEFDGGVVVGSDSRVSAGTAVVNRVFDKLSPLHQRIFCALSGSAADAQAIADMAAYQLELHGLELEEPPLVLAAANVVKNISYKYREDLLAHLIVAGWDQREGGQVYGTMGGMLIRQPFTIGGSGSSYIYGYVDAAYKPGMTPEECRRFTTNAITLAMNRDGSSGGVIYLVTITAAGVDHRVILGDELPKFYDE

[16] = Mutagenicity in Salmonella typhimurium TA98 at 1 mg/ml incubated for 90 mins in absence of liver S9 fraction by AMES test; assay type: toxicity; details: salmonella enterica subsp. enterica serovar typhimurium, s9, 1.5 h

Row | Structure (SMILES) | IC50 at 96 h [1] | Ratio [2] | Activity [3] | Stability [4] | Activity [5] | Activity [6] | IC50 at 96 h [7] | Papp [8] | Papp [9] | Activity [10] | t1/2 [11] | Activity [12] | Activity [13] | IC50 [14] | inhibition [15] | Activity [16]
1 | CC(C)C[C@H](NC(=O)[C@@H]1COCCCCCC(=O)N2CC[C@H]2C(=O)N1)C(=O)[C@@]1(C)CO1 | > 100 µM | 2.17 | Non-Toxic | 38.8% | Non-Toxic | Non-Toxic | > 30 µM | 6.8 10^-6 cm/s | 14.8 10^-6 cm/s | Non-Toxic | 43 min | Non-Toxic | Non-Toxic | – | – | –
2 | C[C@]1(C(=O)[C@H](CC2=CCCC2)NC(=O)[C@@H]2COCCCCCC(=O)N3C[C@H](F)C[C@H]3C(=O)N2)CO1 | > 100 µM | 1.13 | Non-Toxic | 0.3% | Non-Toxic | Non-Toxic | > 100 µM | 8.03 10^-6 cm/s | 9.06 10^-6 cm/s | Non-Toxic | 8.29 min | Non-Toxic | Non-Toxic | 0.137 µM | Active | –
3 | C[C@]1(C(=O)[C@H](Cc2ccccc2)NC(=O)[C@@H]2Cc3ccc(cc3)OCCCCCCCC(=O)N3CCC[C@H]3C(=O)N2)CO1 | – | 0.56 | – | Unstable | – | – | – | 5.91 10^-6 cm/s | 3.33 10^-6 cm/s | – | 1.35 min | – | – | – | – | –
4 | CC(C)C[C@H](NC(=O)[C@@H]1COCCCCCC(=O)NCC(=O)N2CCC[C@H]2C(=O)N1)C(=O)[C@@]1(C)CO1 | – | 21.7 | – | 46.4% | – | – | – | 0.454 10^-6 cm/s | 7.25 10^-6 cm/s | – | 55.3 min | – | – | – | – | –
5 | CC(C)C[C@H](NC(=O)[C@H](CCc1ccccc1)NC(=O)CN1CCOCC1)C(=O)N[C@@H](Cc1ccccc1)C(=O)N[C@@H](CC(C)C)C(=O)[C@@]1(C)CO1 [CARFILZOMIB] | 0.058 µM | 9.33 | – | Unstable | – | – | 0.016 µM | 0.558 10^-6 cm/s | 5.16 10^-6 cm/s | – | 1.34 min | – | – | – | – | –
6 | C[C@]1(C(=O)[C@H](CC2=CCCC2)NC(=O)[C@@H]2Cc3ccc(cc3)OCCCCCCCC(=O)N3CCC[C@H]3C(=O)N2)CO1 | – | 0.43 | – | Unstable | – | – | – | 2.44 10^-6 cm/s | 1.05 10^-6 cm/s | – | – | – | – | 0.22 µM | – | –
7 | C[C@]1(C(=O)[C@H](Cc2ccccc2)NC(=O)[C@H](CO)NC(=O)c2cccc(=O)[nH]2)CO1 | > 30 µM | – | – | – | – | – | 24.1 µM | – | – | – | – | – | – | – | – | –
8 | CC(C)C[C@H](NC(=O)[C@@H]1COCCCCCCC(=O)NCC(=O)N2CCC[C@H]2C(=O)N1)C(=O)[C@@]1(C)CO1 | – | 22.2 | – | 17% | – | – | – | 0.39 10^-6 cm/s | 8.64 10^-6 cm/s | – | 24.1 min | – | – | – | – | –
9 | CC(C)C[C@H](NC(=O)[C@@H]1COCCCCCC(=O)N2CC(F)(F)C[C@H]2C(=O)N1)C(=O)[C@@]1(C)CO1 | > 100 µM | 0.52 | – | 13.5% | Non-Toxic | – | > 100 µM | 29.1 10^-6 cm/s | 14.4 10^-6 cm/s | – | 21.6 min | – | Non-Toxic | – | – | Toxic
10 | C[C@]1(C(=O)[C@H](Cc2ccccc2)NC(=O)[C@@H]2COCCCCCC(=O)N3C[C@H](F)C[C@H]3C(=O)N2)CO1 | – | 1.68 | – | 4.57% | – | – | – | 7.52 10^-6 cm/s | 12.6 10^-6 cm/s | – | 13.4 min | – | – | 0.127 µM | – | –

Reference: ChEMBL document CHEMBL5506017, “Brain-Permeable Immunoproteasome-Targeting Macrocyclic Peptide Epoxyketones for Alzheimer's Disease” (J Med Chem, 2024)
